The text below walks through data of US10045983B2, “Heteroaryl pyridone and aza-pyrodine compounds” (Genentech, Inc., priority 2011, dated 2018).

One may read the IC70 as the concentration needed for an effect of 70%.

The first assay in a line: CD69 Whole Blood Assay (CD69 Hu Blood FACS). The assay is classed as cell-based, human. The conditions noted are these: Lymphocyte; human whole blood, anti-IgM activated B lymphocytes, FACS; IC70; Table 1; read-out: CD69 Hu Blood FACS IC70. The source says:
A CD69 Whole Blood Assay can be conducted on Formula I compounds to determine the ability of compounds to inhibit the production of CD69 by B lymphocytes in human whole blood activated by crosslinking surface IgM with goat F(ab′)2 anti-human IgM (Example 907). CD69 is a type II C-type lectin involved in lymphocyte migration and cytokine secretion. CD69 expression represents one of the earliest available indicators of leukocyte activation and its rapid induction occurs through transcriptional activation (Vazquez et al (2009) Jour. of Immunology Published Oct. 19, 2009, doi:10.4049/jimmunol.0900839). Concentration-dependent inhibition of antigen receptor stimulation by selective Btk inhibitors induces cell surface expression of the lymphocyte activation marker CD69 (Honigberg et al (2010) Proc. Natl. Acad. Sci. 107(29):13075-13080). Thus, CD69 inhibition by selective Btk inhibitors may be correlated with therapeutic efficacy of certain B-cell disorders.
For the compound `CN1CCn2nc(Nc3cc(-c4ccnc(N5CCn6c(cc7c6[C@H]6CC[C@@H]7C6)C5=O)c4CO)cn(C)c3=O)cc2C1` (stereo in doubt) [Example 167, 2-(3-(hydroxymethyl)-4-(1-methyl-5-(5-methyl-4,5,6,7-tetrahydropyrazolo[1,5-a]pyrazin-2-ylamino)-6-oxo-1,6-dihydropyridin-3-yl)pyridin-2-yl)-3,4,6,7,8,9-hexahydro-6,9-methanopyrazino[1,2-a]indol-1(2H)-one], the IC70 is 119 nM.
`CN1CCn2nc(Nc3cc(-c4ccnc(N5CCn6c(cc7c6[C@@H]6CC[C@H]7C6)C5=O)c4CO)cn(C)c3=O)cc2C1` (stereo in doubt) [Example 170, 2-(3-(hydroxymethyl)-4-(1-methyl-5-(5-methyl-4,5,6,7-tetrahydropyrazolo[1,5-a]pyrazin-2-ylamino)-6-oxo-1,6-dihydropyridin-3-yl)pyridin-2-yl)-3,4,6,7,8,9-hexahydro-6,9-methanopyrazino[1,2-a]indol-1(2H)-one]: the concentration for an effect of 70% (IC70) was found to be 335 nM.
As to `Cn1cc(-c2cncc(N3CCn4c(cc5c4CCCC5)C3=O)c2CO)cc(Nc2ccc(N3CCN(C4COC4)CC3)cn2)c1=O` [Example 101, 2-(4-(hydroxymethyl)-5-(1-methyl-5-(5-(4-(oxetan-3-yl)piperazin-1-yl)pyridin-2-ylamino)-6-oxo-1,6-dihydropyridin-3-yl)pyridin-3-yl)-3,4,6,7,8,9-hexahydropyrazino[1,2-a]indol-1(2H)-one], the IC70 is 132 nM.
In the case of `CN1CCN(c2ccc(Nc3cc(-c4cncc(N5CCn6c(cc7c6CCCC7)C5=O)c4CO)cn(C)c3=O)nc2)CC1` [Example 102, 2-(4-(Hydroxymethyl)-5-(1-methyl-5-(5-(4-methylpiperazin-1-yl)pyridin-2-ylamino)-6-oxo-1,6-dihydropyridin-3-yl)pyridin-3-yl)-3,4,6,7,8,9-hexahydropyrazino[1,2-a]indol-1(2H)-one], the IC70 was 132 nM.
The same measure, in the same setting: the figure for `Cn1cc(-c2ccnc(N3CCn4c(cc5c4CCCC5)C3=O)c2CO)cc(Nc2ccc(N3CCN(C4COC4)CC3)cn2)c1=O` [Example 103, 2-(3-(Hydroxymethyl)-4-(1-methyl-5-(5-(4-(oxetan-3-yl)piperazin-1-yl)pyridin-2-ylamino)-6-oxo-1,6-dihydropyridin-3-yl)pyridin-2-yl)-3,4,6,7,8,9-hexahydropyrazino[1,2-a]indol-1(2H)-one] is 77.6 nM.
On the same count and under the same terms, as for `Cn1cc(-c2nccc(N3CCn4c(cc5c4CCCC5)C3=O)c2CO)cc(Nc2ccc(N3CCN(C4COC4)CC3)cn2)c1=O` [Example 104, 2-(3-(Hydroxymethyl)-2-(1-methyl-5-(5-(4-(oxetan-3-yl)piperazin-1-yl)pyridin-2-ylamino)-6-oxo-1,6-dihydropyridin-3-yl)pyridin-4-yl)-3,4,6,7,8,9-hexahydropyrazino[1,2-a]indol-1(2H)-one], the figure is 793 nM; as for `Cn1cc(-c2cncc(N3CCc4c(sc5c4CCCC5)C3=O)c2CO)cc(Nc2ccc(N3CCN(C4COC4)CC3)cn2)c1=O` [Example 105, 4-Hydroxymethyl-3-[1-methyl-5-({5-[4-(oxetan-3-yl)piperazin-1-yl]pyridine-2-yl}amino)-6-oxo-1,6-dihydropyridin-3-yl]-5-{6-oxo-8-thia-5-azatricyclo-[7.4.0.0^2,7]trideca-1(9),2(7)-dien-5-yl}pyridine], 65.4 nM; as for `Cn1cc(-c2cncc(N3CCc4c(sc5c4CC(C)(C)C5)C3=O)c2CO)cc(Nc2ccc(N3CCN(C4COC4)CC3)cn2)c1=O` [Example 106], 57.6 nM.
On the same count and under the same terms, as for `Cn1cc(-c2cncc(N3CCn4c(cc5c4CC(C)(C)C5)C3=O)c2CO)cc(Nc2ccc(N3CCN(C4COC4)CC3)cn2)c1=O` [Example 107, 10-[4-[1-Methyl-5-({5-[4-(oxetan-3-yl)piperazin-1-yl]pyridine-2-yl}amino)-6-oxo-1,6-dihydropyridin-3-yl]-4-(hydroxymethyl)pyridin-3-yl]-4,4-dimethyl-1,10-diazatricyclo[6.4.0.0^2,6]dodeca-2(6),7-dien-9-one], the figure is 21.6 nM; as for `Cn1cc(-c2ccnc(N3CCn4c(cc5c4CC(C)(C)C5)C3=O)c2CO)cc(Nc2ccc(N3CCN(C4COC4)CC3)cn2)c1=O` [Example 108, 2-(3-(Hydroxymethyl)-4-(1-methyl-5-(5-(4-(oxetan-3-yl)piperazin-1-yl)pyridin-2-ylamino)-6-oxo-1,6-dihydropyridin-3-yl)pyridin-2-yl)-4,4-dimethyl-1,10-diazatricyclo[6.4.0.0^2,6]dodeca-2(6),7-dien-9-one], 31.9 nM.
Consider `Cn1cc(-c2ccnc(N3CCc4c(sc5c4CC(C)(C)C5)C3=O)c2CO)cc(Nc2ccc(N3CCN(C4COC4)CC3)cn2)c1=O` [Example 109, 2-(3-(Hydroxymethyl)-4-(1-methyl-5-(5-(4-(oxetan-3-yl)piperazin-1-yl)pyridin-2-ylamino)-6-oxo-1,6-dihydropyridin-3-yl)pyridin-2-yl)-4,4-dimethyl-7-thia-10-azatricyclo[6.4.0.0^2,6]dodeca-1(8),2(6)-dien-9-one], for which the IC70 was determined as 50.1 nM.
Still for that read-out and setting: as for `CN1CCN(c2cccc(Nc3cc(-c4ccnc(N5CCn6c(cc7c6CCCC7)C5=O)c4CO)cn(C)c3=O)n2)CC1` [Example 110, 2-(3-(Hydroxymethyl)-4-(1-methyl-5-(6-(4-methylpiperazin-1-yl)pyridine-2-ylamino)-6-oxo-1,6-dihydropyridin-3-yl)pyridin-2-yl)-3,4,6,7,8,9-hexahydropyrazino[1,2-a]indol-1(2H)-one], the figure is 2700 nM; as for `Cn1cc(-c2ccnc(N3CCn4c(cc5c4CCCC5)C3=O)c2CO)cc(Nc2ccc(C(=O)N3CCOCC3)cn2)c1=O` [Example 111, 2-(3-(Hydroxymethyl)-4-(1-methyl-5-(5-(morpholine-4-carbonyl)pyridin-2-ylamino)-6-oxo-1,6-dihydropyridin-3-yl)pyridin-2-yl)-3,4,6,7,8,9-hexahydropyrazino[1,2-a]indol-1(2H)-one], 131 nM; as for `Cn1cc(-c2cncc(N3CCc4c(cc5n4CCCC5)C3=O)c2CO)cc(Nc2ccc(N3CCN(C4COC4)CC3)cn2)c1=O` [Example 112, 2-(4-(Hydroxymethyl)-5-(1-methyl-5-(5-(4-(oxetan-3-yl)piperazin-1-yl)pyridin-2-ylamino)-6-oxo-1,6-dihydropyridin-3-yl)pyridin-3-yl)-3,4,6,7,8,9-hexahydropyrido[3,4-b]indolizin-1(2H)-one], 492 nM.
Still for that read-out and setting: the figure for `CN1CCn2nc(Nc3cc(-c4ccnc(N5CCn6c(cc7c6CCCC7)C5=O)c4CO)cn(C)c3=O)cc2C1` [Example 113, 2-(3-(Hydroxymethyl)-4-(1-methyl-5-(5-methyl-4,5,6,7-tetrahydropyrazolo[1,5-a]pyrazin-2-ylamino)-6-oxo-1,6-dihydropyridin-3-yl)pyridin-2-yl)-3,4,6,7,8,9-hexahydropyrazino[1,2-a]indol-1(2H)-one] is 62.5 nM.

Staying with this assay, now noted: Lymphocyte; human whole blood, anti-IgM activated B lymphocytes, FACS; IC70; Table 2 (unit inferred); read-out: CD69 Hu Blood FACS (IC70).
With `COC[C@H](C)N1CCn2nc(Nc3cc(-c4ccnc(N5CCn6c(cc7c6CC(C)(C)C7)C5=O)c4CO)cn(C)c3=O)cc2C1` (single isomer, unassigned) [Example 303], the IC70 was 17.9 nM.
